“Also recorded” adds a separate entry of the source.
What was measured:
β-secretase (BACE1) = β-secretase (BACE1) (Homo sapiens, UniProt P56817); details: Asso V., et al. (2008) Chem Med Chem 3:1530-1534; cited from earlier work
[1] = tested on: neural precursor cells in the subgranular zone of the dentate gyrus; assay: In vivo pro-neurogenic efficacy/neuroprotection assay: intracerebroventricular infusion, BrdU incorporation in the dentate gyrus; set-up: species or system mouse (C57/Bl6); details: for pro-neurogenic activity in the in vivo hippocampal neurogenesis assay: direct administration into the brain via Alzet minipumps for one week, 10 μM unless stated
Procedure: Compounds were evaluated for pro-neurogenic efficacy/neuroprotection in our standard in vivo assay at 10 μM concentration in four 12 week old adult male C57/Bl6 mice.
In an effort to identify compounds that might stimulate the birth of new neurons, or protect newborn neurons from cell death, a library of 1,000 compounds was screened using an in vivo assay. In the initial screen, compounds were randomly pooled into groups often and administered intracerebroventricularly at a constant rate over seven days into the left lateral ventricle of living mice via Alzet osmotic mini-pumps. Compounds were administered at a concentration of 10 μM for each molecule, making a total solute concentration of 100 μM. After seven days of infusion at a constant rate of 0.5 μL/hour, a total of 84 μL of volume will have left the pump (0.00084 μMoles) and entered the cerebrospinal fluid. The average volume of a brain from a 12 week old male, C57/B6 mouse in our study is 500 mm^3. […] Under these conditions, at the end of one week of infusion each compound would be present at 1.7 μMolar concentration. Since the actual amount of chemical compound in the brain is likely to be only a fraction of this predicted level, it is reasonable to estimate that compounds were administered at mid to low-nanomolar concentrations.
During compound infusion, animals were intraperitoneally (IP) injected daily with the thymidine analog, bromodeoxyuridine (BrdU), as a means of scoring the birth and survival of proliferating neural precursor cells in the hippocampus. Because both social interaction and voluntary exercise are known to stimulate hippocampal neurogenesis, mice were housed individually without access to running wheels throughout the screening period. Following the week-long period of compound administration, animals were perfused and sacrificed. Dissected brain tissue was fixed, embedded, sectioned, stained with antibodies to BrdU, and evaluated by light microcopy as a means of quantifying neurogenesis and survival of newborn neural precursor cells localized to the subgranular layer of the dentate gyrus on the brain hemisphere contralateral to the side of mini-pump cannulation. Every fifth section throughout the entire rostral-caudal extent of the hippocampus was analyzed, and the total number of BrdU+ cells was normalized against the measured volume of the dentate gyrus. Because both increased proliferation and survival of newborn neurons are important screening parameters, the screen was conducted over seven days in order to cast a wide net to detect molecules that might augment either process. […] Intracranial infusions of either fibroblast growth factor 2 (FGF-2) or artificial cerebral spinal fluid (aCSF) vehicle via the same, week-long protocol were employed as positive and negative controls. There was no difference in the number of BrdU-labeled cells in the dentate gyrus between mice subjected to surgical pump implantation and infusion with vehicle, and mice having had no surgery (FIG. 2). This confirmed the validity of the in vivo approach to assess the ability of intracerebroventricularly infused compounds to enhance hippocampal neurogenesis in the contralateral hemisphere.
In order to further study Example 45 Compound, an in vivo structure activity relationship (SAR) study was conducted using 37 chemical derivatives of the compound for pro-neurogenic activity via direct administration into the brain of adult mice via Alzet minipumps. Compounds were administered for one week at 10 uM into 4 mice per compound, along with daily IP injections of BrdU. Following compound administration, animals were perfused, sacrificed and subjected to sectioning, staining and light microscopy in order to monitor hippocampal neurogenesis localized to the subgranular layer of the dentate gyrus. Roughly 10% of the variant compounds retained pro-neurogenic activity indistinguishable from the parent compound. […]

[2] = tested on: TH+ dopaminergic neurons in the substantia nigra; assay: MPTP model of Parkinson's disease, treatment before, during and after MPTP; type: in vivo, mouse (C57BL/6); details: 10 mg/kg i.p. twice daily; MPTP 30 mg/kg/day for 5 days
Procedure: FIG. 25A and FIG. 25B. Example 6a Compound (P7C3A20) Provides Therapeutic Benefit in Animal Model of Parkinson's Disease. Mice were treated with MPTP (30 mg/kg i.p.) or Vehicle only for 5 days and then immunohistochemically analyzed for tyrosine hydroxylase staining (TH) 21 days later (FIG. 25A). Treatment with MPTP and Vehicle (n=6) reduced the number of TH+ neurons in the substantia nigra (FIG. 25B) by approximately 50% (*, p=0.0002, Student's t test) relative to mice that received Vehicle only (n=8). […] TH+ neurons in the substantia nigra of every mouse were counted blind to treatment group by two investigators using Image J software, and results were averaged.
MPTP (1-methyl-4-phenyl-1,2,3,6-tetrahydropyridine) is a potent neurotoxin that selectively kills dopaminergic neurons in the substantia nigra of both mice and monkeys, causing a clinical picture resembling PD. The MPTP toxicity model can therefore be used to study the death of dopaminergic neurons with the goal of developing new treatments for PD based on neuroprotective strategies found to be effective in these neurons. […] TH-positive cells were counted in the substantia nigra area.

β-secretase (BACE1), sequence (P56817 46-501, species assumed): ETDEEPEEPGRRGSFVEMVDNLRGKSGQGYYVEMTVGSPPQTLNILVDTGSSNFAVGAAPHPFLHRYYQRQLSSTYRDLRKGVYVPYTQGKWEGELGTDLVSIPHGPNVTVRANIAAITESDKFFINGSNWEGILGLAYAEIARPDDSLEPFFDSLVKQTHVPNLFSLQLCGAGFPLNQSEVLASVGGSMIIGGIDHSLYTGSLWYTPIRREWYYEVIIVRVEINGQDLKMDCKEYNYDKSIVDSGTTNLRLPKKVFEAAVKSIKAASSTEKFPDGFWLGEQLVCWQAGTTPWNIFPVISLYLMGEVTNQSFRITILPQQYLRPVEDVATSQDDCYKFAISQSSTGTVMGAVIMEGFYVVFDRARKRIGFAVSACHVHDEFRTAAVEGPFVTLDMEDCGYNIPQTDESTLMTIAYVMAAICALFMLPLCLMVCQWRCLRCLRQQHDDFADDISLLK

| Compound | BACE1 inhibition (β-secretase (BACE1)) | pro-neurogenic activity in the in vivo hippocampal neurogenesis assay [1] | ceiling of efficacy relative to Dimebon in the in vivo test of hippocampal neurogenesis ([1]; higher than Dimebon) | MPTP-mediated death of TH+ neurons in the substantia nigra [2] |
| --- | --- | --- | --- | --- |
| OC(CNc1cccc2ccccc12)Cn1c2ccc(Cl)cc2c2cc(Cl)ccc21 (centres unmarked) [Example P7C3-S184] | reported as a β-secretase (BACE1) inhibitor | inactive in both in vivo assays |  |  |
| OC(CNc1ccccc1)Cn1c2ccc(Br)cc2c2cc(Br)ccc21 (centres unmarked) [Example 45 Compound] |  | pro-neurogenic or neuroprotective activity at both concentrations | roughly 40% |  |
| COc1cccc(NCC(F)Cn2c3ccc(Br)cc3c3cc(Br)ccc32)c1 (centres unmarked) [Example P7C3A20, N-(3-(3,6-dibromo-9H-carbazol-9-yl)-2-fluoropropyl)-3-methoxyaniline] |  |  |  | significantly attenuates MPTP-mediated killing of substantia nigra dopaminergic neurons; also recorded: significantly attenuated |
